# Assay results published in patent US8178568B2, “Sulfone compounds which modulate the CB2 receptor” (Boehringer Ingelheim International GmbH, priority 2008, dated 2012).
# pEC50: −log10 of the molar value.
# Molecular target: T1, human CB2R (Homo sapiens, UniProt P34972)
# T1 construct: host or cells: CHO cells
# Assay: CB2R mediated modulation of cAMP synthesis
# Format: cell-based
# Settings: not given
# Experimental: B. CB2R Mediated Modulation of cAMP Synthesis:
# Compounds of the invention were evaluated for their CB2 agonist or inverse agonistic activity in accordance with the following experimental method.
# CHO cells expressing human CB2R (Euroscreen) were plated at a density of 5000 cells per well in 384 well plates and incubated overnight at 37° C. After removing the media, the cells were treated with test compounds diluted in stimulation buffer containing 1 mM IBMX, 0.25% BSA and 10 uM Forskolin. The assay was incubated for 30 minutes at 37° C. Cells were lysed and the cAMP concentration was measured using DiscoverX-XS cAMP kit, following the manufacturer's protocol. In this setting, agonists will decrease forskolin induced production of cAMP while inverse agonists will further increase forskolin induced production of cAMP. EC50 of agonists were calculated as follows. The maximal amount of cAMP produced by forskolin compared to the level of cAMP inhibited by 1 uM CP55940 is defined as 100%. The EC50 value of each test compound was determined as the concentration at which 50% of the forskolin-stimulated cAMP synthesis was inhibited. Data was analyzed using a four-parameter logistic model. (Model 205 of XLfit 4.0).
# T1 sequence (P34972 whole entry): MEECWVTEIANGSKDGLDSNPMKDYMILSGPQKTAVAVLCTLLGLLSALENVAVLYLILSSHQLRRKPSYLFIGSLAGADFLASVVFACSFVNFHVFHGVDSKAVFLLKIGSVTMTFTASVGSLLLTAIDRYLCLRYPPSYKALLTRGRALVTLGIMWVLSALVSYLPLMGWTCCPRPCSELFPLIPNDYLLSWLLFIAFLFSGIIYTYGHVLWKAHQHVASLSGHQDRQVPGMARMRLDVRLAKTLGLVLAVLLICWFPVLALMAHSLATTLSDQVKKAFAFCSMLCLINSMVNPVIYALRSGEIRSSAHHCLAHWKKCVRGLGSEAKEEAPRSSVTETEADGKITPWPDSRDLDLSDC
row,Structure (SMILES),pEC50
1,CC(C)(C)c1cc(N2CCC(C)(S(=O)(=O)c3ccc(Cl)cc3)C2=O)on1 (stereo not drawn),7.60
2,CC(C)(C)c1cc(N2CC[C@@](C)(S(=O)(=O)c3ccc(Cl)cc3)C2=O)on1,7.43
3,CC(C)(C)c1cc(NC(=O)C(C)(CCO)S(=O)(=O)c2ccc(Cl)cc2)on1 (stereo not drawn),7.77
4,CC(C)(C)c1cc(N2CCC(C)(S(=O)(=O)c3ccc(Cl)cc3)C2=O)no1 (stereo not drawn),7.85
5,CC(C)(C)c1cc(NC(=O)C(C)(CCO)S(=O)(=O)C2CCOCC2)on1 (stereo not drawn),7.68
6,CC(C)(C)c1cc(N2CC[C@](C)(S(=O)(=O)c3ccc(Cl)cc3)C2=O)on1,7.60

# Same assay, conditions: Table III, formula I compounds; CHO cells expressing human CB2R, inhibition of forskolin-stimulated cAMP synthesis; read-out: CB2 EC50
row,Structure (SMILES),pEC50
1,CC(C)(C)c1cc(N2CCC(C)(S(=O)(=O)C3CCOCC3)C2=O)on1 (stereo not drawn),6.66
2,CC1(S(=O)(=O)c2ccc(Cl)cc2)CCN(c2nnc(-c3ccccc3)[nH]2)C1=O (stereo not drawn),7.70

# Same assay, conditions: Table VI, formula IB compounds; CHO cells expressing human CB2R, inhibition of forskolin-stimulated cAMP synthesis; read-out: CB2 EC50
row,Structure (SMILES),pEC50
1,O=C(Nc1nc(-c2ccccc2)ns1)C(CCO)S(=O)(=O)c1ccc(Cl)cc1 (stereo not drawn),6.26
